Molecules are shown by their SMILES. Numbers after ± are expanded uncertainties.

The record followed here is the NIST ThermoML archive (doi:10.1016/j.jct.2010.07.001).

The conditions of data set [1]: Crystal; DTA.
Data set [2] is described as follows: Molar enthalpy of transition or fusion. The note with it: Crystal; DSC.

Turning to `CC(C)(C)NCC(O)COc1cccc2c1CC(O)C(O)C2` (configuration not stated), the Normal melting temperature in data set [1] came out at 130.2 ± 2.1 °C. Also, the “Molar enthalpy of transition or fusion” value in data set [2] stood at 12.7 ± 0.335 kcal/mol.

In the case of `c1ccc(-c2ccc(C(c3ccccc3)n3ccnc3)cc2)cc1` (configuration not stated) [1-([1,1'-biphenyl]-4-yl(phenyl)methyl)-1H-imidazole], the Normal melting temperature in data set [1] was found to be 150 ± 2.1 °C. Moreover, in data set [2], the “Molar enthalpy of transition or fusion” value was 8.96 ± 0.239 kcal/mol.

Take `CC(C)NCC(O)COc1ccc(CC(N)=O)cc1` (configuration not stated) [2-(4-(2-hydroxy-3-(isopropylamino)propoxy)phenyl)acetamide]: the Normal melting temperature in data set [1] was found to be 151.4 ± 2.1 °C. In data set [2], the “Molar enthalpy of transition or fusion” value was 8.75 ± 0.239 kcal/mol.

As to `Cc1cccc(Nc2ccccc2C(=O)O)c1C` [2-((2,3-dimethylphenyl)amino)benzoic acid], the Normal melting temperature in data set [1] worked out at 230.0 ± 2.1 °C. In addition, the “Molar enthalpy of transition or fusion” value in data set [2] is 17 ± 9.56 kcal/mol.

With `C[C@]12CC[C@@H]3c4ccc(O)cc4CC[C@H]3[C@@H]1CCC2=O` [3-hydroxy-1,3,5(10)-estratrien-17-one], in data set [1], the Normal melting temperature amounted to 254.0 ± 2.1 °C. The “Molar enthalpy of transition or fusion” value in data set [2] came to 10.8 ± 0.287 kcal/mol.

Consider `CS(=O)(=O)Nc1ccc([N+](=O)[O-])cc1Oc1ccccc1` [nimesulide], for which the Normal melting temperature in data set [1] was 149.1 ± 2.1 °C. Besides, the “Molar enthalpy of transition or fusion” value in data set [2] was determined as 11.3 ± 0.311 kcal/mol.
